Laboratory results published in patent US9346809B2 (LEO PHARMA A/S, priority 2009, dated 2016).

Legend:
Type in all cases: biochemical
[1] = target: T1, JAK3 (catalytic domain, His-tag) (Homo sapiens, UniProt P52333); assay: JAK kinase assay (HTRF, phosphorylation of TK substrate-biotin), JAK3; conditions: ATP at Km (2 μM); read-out: JAK3 kinase inhibitory activity (EC50 indicator)
T1 construct: All four purified enzymes contain only the catalytic domain; His (N); purchased Carna Biosciences, Inc; host or cells: baculovirus expression system
Method: (§1) Human baculovirus-expressed JAK1, 2, 3 and TYK2 were purchased from Carna Biosciences, Inc. All four purified enzymes contain only the catalytic domain. JAK1 (aa 850-1154) and TYK2 (aa 871-1187) are expressed with an N-terminally fused GST-tag, and JAK2 and JAK3 with an N-terminally fused His-tag.
(§2) Inhibition of phosphorylation of a synthetic peptide was measured in an HTRF-based assay using the TK substrate-Biotin from the Cisbio HTRFKinEASE TK kit. First, 2 μl of TK solution (TK substrate-biotin in kinase buffer [1× enzymatic buffer from HTRFKinEASE TK kit, 1 mM DTT]) is added to a plate containing 1 μl prediluted compound (final assay concentration DMSO: 0.75%). Then, 5 μl kinase-ATP mix (prepared in kinase buffer) is added to the wells and the plates are incubated at RT for 20-30 min. For all four kinases a concentration of ATP that corresponded to the Km for ATP was used. The final concentrations of buffers, substrate, kinase and ATP were: JAK1: 50 mM Hepes buffer pH 7.0, 0.01% BSA, 10 mM MgCl2, 1 mM DTT, 7 μM ATP, 50 nM SEB, 1 μM TK Substrate-Biotin and 5 ng JAK1; JAK2: 50 mM Hepes buffer pH 7.0, 0.01% BSA, 5 mM MgCl2, 1 mM DTT, 4 μM ATP, 1 μM TK Substrate-Biotin and 0.1 ng JAK2; JAK3: 50 mM Hepes buffer pH 7.0, 0.01% BSA, 5 mM MgCl2, 1 mM DTT, 2 μM ATP, 1 μM TK Substrate-Biotin and 0.3 ng JAK3; TYK2: 50 mM Hepes buffer pH 7.0, 0.01% BSA, 5 mM MgCl2, 1 mM DTT, 13 μM ATP, 50 nM SEB, 1 μM TK Substrate-Biotin and 0.8 ng TYK2. Thereafter, the kinase reaction is stopped by adding 4 μl detection mix (final concentrations: 50 mM Hepes buffer pH 7.0, 0.01% BSA, 0.8 M KF, 20 mM EDTA, 42 nM Streptavidin-XL665 and 1:400 STK Ab Cryptate) and the plates are incubated overnight in the dark. The HTRF signal is read using an Envision plate reader.
(§3) In Table 1 selected JAK kinase inhibitory activities are listed with the following indicators: I: EC50<100 nM, II: 100 nM≦EC50≦500 nM and III: EC50>500 nM

[2] = target: T2, TYK2 (aa 871-1187, catalytic domain, GST-tag) (Homo sapiens, UniProt P29597); assay: JAK kinase assay (HTRF, phosphorylation of TK substrate-biotin), TYK2; conditions: ATP at Km (13 μM); read-out: TYK2 kinase inhibitory activity (EC50 indicator)
T2 construct: JAK1 (aa 850-1154) and TYK2 (aa 871-1187) are expressed with an N-terminally fused GST-tag; GST (N); purchased Carna Biosciences, Inc; host or cells: baculovirus expression system
T2 sequence (P29597 871-1187): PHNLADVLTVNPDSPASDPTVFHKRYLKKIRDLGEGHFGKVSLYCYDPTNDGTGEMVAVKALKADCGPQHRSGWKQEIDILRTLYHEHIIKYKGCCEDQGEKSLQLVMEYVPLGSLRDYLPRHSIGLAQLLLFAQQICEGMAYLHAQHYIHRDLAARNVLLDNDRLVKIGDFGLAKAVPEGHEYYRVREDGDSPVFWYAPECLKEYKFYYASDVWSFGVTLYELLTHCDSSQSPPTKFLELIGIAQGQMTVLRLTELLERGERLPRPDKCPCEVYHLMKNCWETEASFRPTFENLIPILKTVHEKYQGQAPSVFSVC
Method: as §1, §2, §3

[3] = target: T3, JAK2 (catalytic domain, His-tag) (Homo sapiens, UniProt O60674); assay: JAK kinase assay (HTRF, phosphorylation of TK substrate-biotin), JAK2; conditions: ATP at Km (4 μM); read-out: JAK2 kinase inhibitory activity (EC50 indicator)
T3 construct: All four purified enzymes contain only the catalytic domain; His (N); purchased Carna Biosciences, Inc; host or cells: baculovirus expression system
Method: as §1, §2, §3

[4] = target: T4, JAK1 (aa 850-1154, catalytic domain, GST-tag) (Homo sapiens, UniProt P23458); assay: JAK kinase assay (HTRF, phosphorylation of TK substrate-biotin), JAK1; conditions: ATP at Km (7 μM); read-out: JAK1 kinase inhibitory activity (EC50 indicator)
T4 construct: JAK1 (aa 850-1154) and TYK2 (aa 871-1187) are expressed with an N-terminally fused GST-tag; GST (N); purchased Carna Biosciences, Inc; host or cells: baculovirus expression system
Method: as §1, §2, §3

T4 sequence (P23458 850-1154): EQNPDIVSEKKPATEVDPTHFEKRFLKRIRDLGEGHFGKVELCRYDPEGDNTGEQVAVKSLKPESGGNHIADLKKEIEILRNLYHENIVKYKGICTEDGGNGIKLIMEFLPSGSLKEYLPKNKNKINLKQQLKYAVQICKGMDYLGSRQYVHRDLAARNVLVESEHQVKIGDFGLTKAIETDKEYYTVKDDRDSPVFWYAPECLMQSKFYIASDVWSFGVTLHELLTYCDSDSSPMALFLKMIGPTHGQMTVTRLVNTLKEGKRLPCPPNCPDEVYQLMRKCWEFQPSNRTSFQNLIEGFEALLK
T1 sequence (P52333 822-1111 limits assumed): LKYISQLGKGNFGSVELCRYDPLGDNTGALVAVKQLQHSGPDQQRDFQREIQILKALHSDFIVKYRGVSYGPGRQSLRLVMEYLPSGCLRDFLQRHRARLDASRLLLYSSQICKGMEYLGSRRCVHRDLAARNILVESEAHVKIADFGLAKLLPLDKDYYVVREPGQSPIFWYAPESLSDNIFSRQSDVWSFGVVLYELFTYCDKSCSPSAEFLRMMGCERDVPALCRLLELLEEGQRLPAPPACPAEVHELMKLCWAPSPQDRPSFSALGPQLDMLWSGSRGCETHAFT
T3 sequence (O60674 849-1124 limits assumed): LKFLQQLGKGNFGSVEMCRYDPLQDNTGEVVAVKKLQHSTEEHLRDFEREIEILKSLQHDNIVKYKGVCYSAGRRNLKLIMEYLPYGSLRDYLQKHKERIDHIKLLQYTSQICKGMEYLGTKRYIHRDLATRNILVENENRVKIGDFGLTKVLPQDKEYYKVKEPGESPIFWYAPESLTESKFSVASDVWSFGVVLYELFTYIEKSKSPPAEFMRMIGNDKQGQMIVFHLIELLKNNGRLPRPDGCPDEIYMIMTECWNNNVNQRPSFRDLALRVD

EC50 [1] [nM]	EC50 [2] [nM]	EC50 [3] [nM]	EC50 [4] [nM]	SMILES
100 to 500	100 to 500	< 100	< 100	O=C(c1cccc(C(F)(F)F)c1)N1CCN(c2ncnc3[nH]ccc23)CC12CC2 [Example 20, [7-(7H-Pyrrolo[2,3-d]pyrimidin-4-yl)-4,7-diazaspiro[2.5]oct-4-yl]-(3-trifluoromethylphenyl)methanone]
100 to 500	> 500	< 100	< 100	O=C(Cc1ccncc1)N1CCN(c2ncnc3[nH]ccc23)CC12CC2 [Example 21, 2-Pyridin-4-yl-1-[7-(7H-pyrrolo[2,3-d]pyrimidin-4-yl)-4,7-diazaspiro[2.5]oct-4-yl]ethanone]
100 to 500	> 500	< 100	100 to 500	O=C(C1CCCO1)N1CCN(c2ncnc3[nH]ccc23)CC12CC2 (stereo not drawn) [Example 22, [7-(7H-Pyrrolo[2,3-d]pyrimidin-4-yl)-4,7-diazaspiro[2.5]oct-4-yl]-(tetrahydrofuran-2-yl)methanone]
< 100	100 to 500	< 100	< 100	O=C1CCC(C(=O)N2CCN(c3ncnc4[nH]ccc34)CC23CC3)CC1 [Example 23, 4-[7-(7H-Pyrrolo[2,3-d]pyrimidin-4-yl)-4,7-diazaspiro[2.5]octane-4-carbonyl]cyclohexanone]
< 100	> 500	< 100	< 100	O=C(CC(F)(F)F)N1CCN(c2ncnc3[nH]ccc23)CC12CC2 [Example 24, 3,3,3-Trifluoro-1-[7-(7H-pyrrolo[2,3-d]pyrimidin-4-yl)-4,7-diazaspiro[2.5]oct-4-yl]propan-1-one]
100 to 500	> 500	< 100	100 to 500	N#Cc1cccc(CC(=O)N2CCN(c3ncnc4[nH]ccc34)CC23CC3)c1 [Example 25, 3-{2-Oxo-2-[7-(7H-pyrrolo[2,3-d]pyrimidin-4-yl)-4,7-diazaspiro[2.5]oct-4-yl]-ethyl}benzonitrile]
100 to 500	100 to 500	< 100	< 100	O=C(c1cc2ccccc2s1)N1CCN(c2ncnc3[nH]ccc23)CC12CC2 [Example 26, Benzo[b]thiophen-2-yl-[7-(7H-pyrrolo[2,3-d]pyrimidin-4-yl)-4,7-diazaspiro[2.5]oct-4-yl]methanone]
100 to 500	100 to 500	< 100	< 100	O=C(c1ccccc1)N1CCN(c2ncnc3[nH]ccc23)CC12CC2 [Example 27, Phenyl-[7-(7H-pyrrolo[2,3-d]pyrimidin-4-yl)-4,7-diazaspiro[2.5]oct-4-yl]methanone]
< 100	100 to 500	< 100	< 100	O=C(CCC(F)(F)F)N1CCN(c2ncnc3[nH]ccc23)CC12CC2 [Example 28, 4,4,4-Trifluoro-1-[7-(7H-pyrrolo[2,3-d]pyrimidin-4-yl)-4,7-diazaspiro[2.5]oct-4-yl]butan-1-one]
> 500	> 500	100 to 500	100 to 500	CCOC(=O)NC(=S)N1[C@@H]2CC[C@H]1CN(c1ncnc3[nH]ccc13)C2 [Example 29, [3-(7H-Pyrrolo[2,3-d]pyrimidin-4-yl)-3,8-diazabicyclo[3.2.1]octane-8-carbothioyl]carbamic acid ethyl ester]
> 500	> 500	100 to 500	100 to 500	CCC(=O)N1[C@@H]2CC[C@H]1CN(c1ncnc3[nH]ccc13)C2 [Example 30, 1-[3-(7H-Pyrrolo[2,3-d]pyrimidin-4-yl)-3,8-diazabicyclo[3.2.1]oct-8-yl]propan-1-one]
100 to 500	> 500	< 100	< 100	N#Cc1ccc(C(=O)N2[C@@H]3CC[C@H]2CN(c2ncnc4[nH]ccc24)C3)cc1 [Example 31, 4-[3-(7H-Pyrrolo[2,3-d]pyrimidin-4-yl)-3,8-diazabicyclo[3.2.1]octane-8-carbonyl]benzonitrile]
> 500	> 500	100 to 500	100 to 500	O=C(Cc1ccccc1)N1[C@@H]2CC[C@H]1CN(c1ncnc3[nH]ccc13)C2 [Example 32, 2-Phenyl-1-[3-(7H-pyrrolo[2,3-d]pyrimidin-4-yl)-3,8-diazabicyclo[3.2.1]oct-8-yl]ethanone]
100 to 500	100 to 500	< 100	< 100	O=C(c1ccccc1)N1[C@@H]2CC[C@H]1CN(c1ncnc3[nH]ccc13)C2 [Example 33, Phenyl-[3-(7H-pyrrolo[2,3-d]pyrimidin-4-yl)-3,8-diazabicyclo[3.2.1]oct-8-yl]methanone]
> 500	> 500	> 500	> 500	CC(=O)NCC(=O)N1[C@@H]2CC[C@@H]1CN(c1ncnc3[nH]ccc13)C2 [Example 34, N-{2-Oxo-2-[3-(7H-pyrrolo[2,3-d]pyrimidin-4-yl)-3,8-diaza-bicyclo[3.2.1]oct-8-yl]-ethyl}acetamide]
< 100	< 100	< 100	< 100	N#Cc1ccc(CC(=O)N2CCN(c3ncnc4[nH]ccc34)CC23CC3)cc1 [Example 35, 4-{2-Oxo-2-[7-(7H-pyrrolo[2,3-d]pyrimidin-4-yl)-4,7-diazaspiro[2.5]oct-4-yl]-ethyl}benzonitrile]
> 500	> 500	100 to 500	100 to 500	O=C(c1ccc2cc[nH]c2c1)N1CCN(c2ncnc3[nH]ccc23)CC12CC2 [Example 36, (1H-Indol-6-yl)-[7-(7H-pyrrolo[2,3-d]pyrimidin-4-yl)-4,7-diazaspiro[2.5]oct-4-yl]methanone]
100 to 500	> 500	< 100	< 100	CS(=O)(=O)CCC(=O)N1CCN(c2ncnc3[nH]ccc23)CC12CC2 [Example 37, 3-Methanesulfonyl-1-[7-(7H-pyrrolo[2,3-d]pyrimidin-4-yl)-4,7-diazaspiro[2.5]oct-4-yl]propan-1-one]
100 to 500	> 500	< 100	< 100	O=C(CC1CCCC1)N1[C@@H]2CC[C@H]1CN(c1ncnc3[nH]ccc13)C2 [Example 38, 2-Cyclopentyl-1-[3-(7H-pyrrolo[2,3-d]pyrimidin-4-yl)-3,8-diazabicyclo[3.2.1]oct-8-yl]ethanone]
> 500	> 500	100 to 500	> 500	COCCCNC(=S)N1[C@@H]2CC[C@H]1CN(c1ncnc3[nH]ccc13)C2 [Example 39, 3-(7H-Pyrrolo[2,3-d]pyrimidin-4-yl)-3,8-diazabicyclo[3.2.1]octane-8-carbothioic acid (3-methoxy-propyl)amide]
> 500	> 500	100 to 500	100 to 500	O=C(CC(F)(F)F)N1[C@@H]2CC[C@H]1CN(c1ncnc3[nH]ccc13)C2 [Example 40, 3,3,3-Trifluoro-1-[3-(7H-pyrrolo[2,3-d]pyrimidin-4-yl)-3,8-diaza-bicyclo[3.2.1]oct-8-yl]propan-1-one]
